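Tested at 5 concentrations; 48 h exposure; 96-well plates; endpoints linearly interpolated, else capped at highest concentration. TGI marks complete inhibition of growth.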
Tests used:
Test in all cases: DTP human tumour cell line panel, 48 h
786-0 renal = tested on: 786-0 renal
A549 NSCLC = tested on: A549 NSCLC
ACHN renal = tested on: ACHN renal
CAKI-1 renal = tested on: CAKI-1 renal
CCRF-CEM leukemia = tested on: CCRF-CEM leukemia
DLD-1 colon = tested on: DLD-1 colon
DMS 114 small cell lung = tested on: DMS 114 small cell lung
EKVX NSCLC = tested on: EKVX NSCLC
HCC-2998 colon = tested on: HCC-2998 colon
HCT-116 colon = tested on: HCT-116 colon
HCT-15 colon = tested on: HCT-15 colon
HL-60(TB) leukemia = tested on: HL-60(TB) leukemia
HOP-18 NSCLC = tested on: HOP-18 NSCLC
HOP-62 NSCLC = tested on: HOP-62 NSCLC
HOP-92 NSCLC = tested on: HOP-92 NSCLC
HT29 colon = tested on: HT29 colon
IGROV1 ovarian = tested on: IGROV1 ovarian
K-562 leukemia = tested on: K-562 leukemia
KM12 colon = tested on: KM12 colon
LOX IMVI melanoma = tested on: LOX IMVI melanoma
LXFL 529 NSCLC = tested on: LXFL 529 NSCLC
M14 melanoma = tested on: M14 melanoma
M19-MEL melanoma = tested on: M19-MEL melanoma
MALME-3M melanoma = tested on: MALME-3M melanoma
MOLT-4 leukemia = tested on: MOLT-4 leukemia
NCI-H226 lung = tested on: NCI-H226 lung
NCI-H23 lung = tested on: NCI-H23 lung
NCI-H460 lung = tested on: NCI-H460 lung
NCI-H522 lung = tested on: NCI-H522 lung
OVCAR-3 ovarian = tested on: OVCAR-3 ovarian
OVCAR-4 ovarian = tested on: OVCAR-4 ovarian
OVCAR-5 ovarian = tested on: OVCAR-5 ovarian
OVCAR-8 ovarian = tested on: OVCAR-8 ovarian
RPMI-8226 leukemia = tested on: RPMI-8226 leukemia
RXF 393 renal = tested on: RXF 393 renal
SF-268 CNS = tested on: SF-268 CNS
SF-295 CNS = tested on: SF-295 CNS
SF-539 CNS = tested on: SF-539 CNS
SK-MEL-2 melanoma = tested on: SK-MEL-2 melanoma
SK-MEL-28 melanoma = tested on: SK-MEL-28 melanoma
SK-MEL-5 melanoma = tested on: SK-MEL-5 melanoma
SK-OV-3 ovarian = tested on: SK-OV-3 ovarian
SN12C renal = tested on: SN12C renal
SNB-19 CNS = tested on: SNB-19 CNS
SNB-78 CNS = tested on: SNB-78 CNS
SR leukemia = tested on: SR leukemia
SW-620 colon = tested on: SW-620 colon
TK-10 renal = tested on: TK-10 renal
U251 CNS = tested on: U251 CNS
UACC-257 melanoma = tested on: UACC-257 melanoma
UACC-62 melanoma = tested on: UACC-62 melanoma
UO-31 renal = tested on: UO-31 renal
XF 498 CNS = tested on: XF 498 CNS
A498 renal = tested on: A498 renal
COLO 205 colon = tested on: COLO 205 colon
DMS 273 small cell lung = tested on: DMS 273 small cell lung
KM20L2 colon = tested on: KM20L2 colon
SNB-75 CNS = tested on: SNB-75 CNS

O=C1C2Nc3ccccc3SC2C(=O)N1c1ccccc1C(F)(F)F (centres undefined)
TGI (786-0 renal): 68.5 µM
TGI (A549 NSCLC): > 100 µM
TGI (ACHN renal): > 100 µM
TGI (CAKI-1 renal): > 100 µM
TGI (CCRF-CEM leukemia): > 100 µM
TGI (DLD-1 colon): > 100 µM
TGI (DMS 114 small cell lung): > 100 µM
TGI (EKVX NSCLC): > 100 µM
TGI (HCC-2998 colon): 35.7 µM
TGI (HCT-116 colon): > 100 µM
TGI (HCT-15 colon): 65.5 µM
TGI (HL-60(TB) leukemia): 28.1 µM
TGI (HOP-18 NSCLC): > 100 µM
TGI (HOP-62 NSCLC): > 100 µM
TGI (HOP-92 NSCLC): > 100 µM
TGI (HT29 colon): > 100 µM
TGI (IGROV1 ovarian): > 100 µM
TGI (K-562 leukemia): > 100 µM
TGI (KM12 colon): > 100 µM
TGI (LOX IMVI melanoma): > 100 µM
TGI (LXFL 529 NSCLC): > 100 µM
TGI (M14 melanoma): 75.8 µM
TGI (M19-MEL melanoma): > 100 µM
TGI (MALME-3M melanoma): > 100 µM
TGI (MOLT-4 leukemia): > 100 µM
TGI (NCI-H226 lung): > 100 µM
TGI (NCI-H23 lung): 60.3 µM
TGI (NCI-H460 lung): > 100 µM
TGI (NCI-H522 lung): 56.3 µM
TGI (OVCAR-3 ovarian): 60.6 µM
TGI (OVCAR-4 ovarian): > 100 µM
TGI (OVCAR-5 ovarian): > 100 µM
TGI (OVCAR-8 ovarian): > 100 µM
TGI (RPMI-8226 leukemia): > 100 µM
TGI (RXF 393 renal): 23.7 µM
TGI (SF-268 CNS): > 100 µM
TGI (SF-295 CNS): 46.2 µM
TGI (SF-539 CNS): 41 µM
TGI (SK-MEL-2 melanoma): > 100 µM
TGI (SK-MEL-28 melanoma): > 100 µM
TGI (SK-MEL-5 melanoma): > 100 µM
TGI (SK-OV-3 ovarian): > 100 µM
TGI (SN12C renal): 78.2 µM
TGI (SNB-19 CNS): > 100 µM
TGI (SNB-78 CNS): 53.6 µM
TGI (SR leukemia): > 100 µM
TGI (SW-620 colon): > 100 µM
TGI (TK-10 renal): > 100 µM
TGI (U251 CNS): 45.2 µM
TGI (UACC-257 melanoma): > 100 µM
TGI (UACC-62 melanoma): > 100 µM
TGI (UO-31 renal): > 100 µM
TGI (XF 498 CNS): 53.2 µM

CC(C)c1cc(OCC(O)CO)cc(C(C)C)c1 (centres undefined)
TGI (786-0 renal): > 100 µM
TGI (A498 renal): > 100 µM
TGI (A549 NSCLC): > 100 µM
TGI (ACHN renal): > 100 µM
TGI (CAKI-1 renal): > 100 µM
TGI (CCRF-CEM leukemia): > 100 µM
TGI (COLO 205 colon): > 100 µM
TGI (DLD-1 colon): > 100 µM
TGI (DMS 114 small cell lung): > 100 µM
TGI (DMS 273 small cell lung): > 100 µM
TGI (EKVX NSCLC): > 100 µM
TGI (HCC-2998 colon): > 100 µM
TGI (HCT-116 colon): > 100 µM
TGI (HCT-15 colon): > 100 µM
TGI (HL-60(TB) leukemia): > 100 µM
TGI (HOP-18 NSCLC): > 100 µM
TGI (HOP-62 NSCLC): > 100 µM
TGI (HOP-92 NSCLC): > 100 µM
TGI (HT29 colon): > 100 µM
TGI (IGROV1 ovarian): > 100 µM
TGI (K-562 leukemia): > 100 µM
TGI (KM12 colon): > 100 µM
TGI (KM20L2 colon): > 100 µM
TGI (LOX IMVI melanoma): > 100 µM
TGI (LXFL 529 NSCLC): > 100 µM
TGI (M14 melanoma): > 100 µM
TGI (M19-MEL melanoma): > 100 µM
TGI (MALME-3M melanoma): > 100 µM
TGI (MOLT-4 leukemia): > 100 µM
TGI (NCI-H226 lung): > 100 µM
TGI (NCI-H23 lung): > 100 µM
TGI (NCI-H460 lung): > 100 µM
TGI (NCI-H522 lung): > 100 µM
TGI (OVCAR-3 ovarian): > 100 µM
TGI (OVCAR-4 ovarian): > 100 µM
TGI (OVCAR-5 ovarian): > 100 µM
TGI (OVCAR-8 ovarian): > 100 µM
TGI (RXF 393 renal): > 100 µM
TGI (SF-268 CNS): > 100 µM
TGI (SF-295 CNS): > 100 µM
TGI (SF-539 CNS): > 100 µM
TGI (SK-MEL-2 melanoma): > 100 µM
TGI (SK-MEL-28 melanoma): > 100 µM
TGI (SK-MEL-5 melanoma): > 100 µM
TGI (SK-OV-3 ovarian): > 100 µM
TGI (SN12C renal): > 100 µM
TGI (SNB-19 CNS): > 100 µM
TGI (SNB-75 CNS): > 100 µM
TGI (SNB-78 CNS): > 100 µM
TGI (SR leukemia): > 100 µM
TGI (SW-620 colon): > 100 µM
TGI (TK-10 renal): > 100 µM
TGI (U251 CNS): > 100 µM
TGI (UACC-257 melanoma): > 100 µM
TGI (UACC-62 melanoma): > 100 µM
TGI (UO-31 renal): > 100 µM
TGI (XF 498 CNS): > 100 µM

CC(=O)NNc1nc(C)c(C(=O)NNC(=O)C(=O)Nc2c(C)cccc2C(C)(C)C)s1
TGI (A498 renal): > 100 µM
TGI (A549 NSCLC): > 100 µM
TGI (ACHN renal): > 100 µM
TGI (CAKI-1 renal): > 100 µM
TGI (CCRF-CEM leukemia): 69.9 µM
TGI (COLO 205 colon): > 100 µM
TGI (DLD-1 colon): > 100 µM
TGI (DMS 273 small cell lung): > 100 µM
TGI (EKVX NSCLC): > 100 µM
TGI (HCC-2998 colon): > 100 µM
TGI (HCT-116 colon): > 100 µM
TGI (HCT-15 colon): > 100 µM
TGI (HL-60(TB) leukemia): > 100 µM
TGI (HOP-62 NSCLC): > 100 µM
TGI (HOP-92 NSCLC): > 100 µM
TGI (HT29 colon): > 100 µM
TGI (IGROV1 ovarian): > 100 µM
TGI (K-562 leukemia): > 100 µM
TGI (KM12 colon): > 100 µM
TGI (KM20L2 colon): > 100 µM
TGI (LOX IMVI melanoma): > 100 µM
TGI (LXFL 529 NSCLC): > 100 µM
TGI (M14 melanoma): > 100 µM
TGI (M19-MEL melanoma): > 100 µM
TGI (MOLT-4 leukemia): > 100 µM
TGI (NCI-H226 lung): > 100 µM
TGI (NCI-H23 lung): > 100 µM
TGI (NCI-H460 lung): > 100 µM
TGI (NCI-H522 lung): 57.1 µM
TGI (OVCAR-4 ovarian): > 100 µM
TGI (OVCAR-5 ovarian): > 100 µM
TGI (OVCAR-8 ovarian): > 100 µM
TGI (RPMI-8226 leukemia): > 100 µM
TGI (RXF 393 renal): > 100 µM
TGI (SF-268 CNS): > 100 µM
TGI (SF-295 CNS): > 100 µM
TGI (SF-539 CNS): > 100 µM
TGI (SK-MEL-2 melanoma): > 100 µM
TGI (SK-MEL-28 melanoma): > 100 µM
TGI (SK-MEL-5 melanoma): > 100 µM
TGI (SK-OV-3 ovarian): > 100 µM
TGI (SN12C renal): > 100 µM
TGI (SNB-19 CNS): > 100 µM
TGI (SNB-75 CNS): > 100 µM
TGI (SNB-78 CNS): > 100 µM
TGI (SR leukemia): > 100 µM
TGI (SW-620 colon): > 100 µM
TGI (TK-10 renal): > 100 µM
TGI (U251 CNS): > 100 µM
TGI (UACC-257 melanoma): > 100 µM
TGI (UACC-62 melanoma): > 100 µM
TGI (UO-31 renal): > 100 µM
TGI (XF 498 CNS): > 100 µM

C=C(Cl)Cc1c(O)c2c(c(O)c1CC(=C)Cl)C(=O)c1ccccc1C2=O
TGI (786-0 renal): > 100 µM
TGI (A549 NSCLC): > 100 µM
TGI (ACHN renal): > 100 µM
TGI (CAKI-1 renal): > 100 µM
TGI (CCRF-CEM leukemia): > 100 µM
TGI (COLO 205 colon): > 100 µM
TGI (DLD-1 colon): > 100 µM
TGI (DMS 114 small cell lung): > 100 µM
TGI (DMS 273 small cell lung): > 100 µM
TGI (EKVX NSCLC): > 100 µM
TGI (HCC-2998 colon): > 100 µM
TGI (HCT-15 colon): > 100 µM
TGI (HL-60(TB) leukemia): > 100 µM
TGI (HOP-62 NSCLC): > 100 µM
TGI (IGROV1 ovarian): > 100 µM
TGI (K-562 leukemia): > 100 µM
TGI (KM20L2 colon): > 100 µM
TGI (LOX IMVI melanoma): > 100 µM
TGI (LXFL 529 NSCLC): > 100 µM
TGI (M14 melanoma): > 100 µM
TGI (MALME-3M melanoma): > 100 µM
TGI (MOLT-4 leukemia): > 100 µM
TGI (OVCAR-4 ovarian): > 100 µM
TGI (OVCAR-5 ovarian): > 100 µM
TGI (OVCAR-8 ovarian): > 100 µM
TGI (RPMI-8226 leukemia): > 100 µM
TGI (SK-MEL-2 melanoma): > 100 µM
TGI (SK-MEL-5 melanoma): > 100 µM
TGI (SK-OV-3 ovarian): > 100 µM
TGI (SN12C renal): > 100 µM
TGI (SR leukemia): > 100 µM
TGI (SW-620 colon): > 100 µM
TGI (TK-10 renal): > 100 µM
TGI (U251 CNS): > 100 µM
TGI (UACC-62 melanoma): > 100 µM
TGI (XF 498 CNS): > 100 µM

From PubChem BioAssay (NCI)
